Entries after “also recorded” stand apart in the source; their conditions may differ. Where no end group is shown, it is not given here.
Columns and labels:
MDA-MB-231 cells = assay: In vitro mRNA transfection with HK polyplexes (luciferase mRNA, luciferase activity); type: cell-based; settings: for RLU/μg-Protein (luciferase activity): mRNA 1 μg, 24 h; for effectiveness as carrier of mRNA (in words): luciferase mRNA, HK polyplex; for mRNA transfection relative to H3K(+H)4b (in words): 4:1 ratio (HK:mRNA)
Description: FIG. 1. Comparison of H3K(+H)4b and H3K4b peptides as carriers of mRNA. To form the HK polyplexes, the mRNA (1 μg) was mixed with 3 different ratios of the HK ([…]) polymer for 30 minutes. The HK polyplexes were then added to the cells for 24 h before the luciferase activity was measured. ****, H3K(+H)4b vs H3K4b, P<0.0001.
In vitro mRNA Transfection. Several HK polymers were examined for their ability to carry a luciferase-expressing mRNA (CleanCap Firefly Luciferase mRNA, Trilink Biotechnologies, Inc, San Diego, CA) into MDA-MB-231 cells (America Type Tissue Culture, Manassas, VA). In brief, 3×10^4 cells were plated into a 24-well plate containing 500 μl of DMEM and 10% fetal bovine serum (ThermoFisher Scientific, Waltham, MA). After 24 h, when the cells were 60 to 80% confluent, the media in each well was changed to Opti-MEM (ThermoFisher Scientific). To prepare HK polyplexes, mRNA (1 μg) in 50 μl of Opti-MEM was briefly mixed well with one of the HK polymers (4 to 12 μg) and maintained at room temperature for 30 min. This polyplex was then added dropwise to the cells. After four h, the Opti-MEM media was removed and replaced with 0.5 ml of DMEM/10% serum (0.5 ml). Twenty-four hours later, the cells were lysed, and the luciferase activity (Promega Corporation, Madison, WI) was measured.
To obtain the data in Table 4, luciferase-expressing mRNA (1 μg) in 50 μl of Opti-MEM was briefly mixed with one of the HK polymers (4, 8, or 12 μg) and maintained at room temperature for 30 min. The resulting polyplexes were added dropwise to the MDA-NM-231 cells and after four h, the Opti-MEM media was removed and replaced with DMEM/10% serum. Twenty-four hours later, the cells were lysed, and the luciferase activity was measured

mRNA = assay: Heparin displacement assays (gel electrophoresis and Sybr Gold dye intercalation); type: physicochemical; settings: HK:mRNA 4:1 wt/wt
Description: FIG. 4. Heparin Displacement Assays. After HK polyplexes were formed (wt:wt; HK:mRNA; 4 μg:1 μg), different concentrations of heparin […] were incubated with these for 30 min. A. Gel Retardation. The HK polyplexes were loaded on the agarose gel (1%), and electrophoresis was carried out and stained with Sybr Gold. B. Fluorescent dye intercalation. After the HK polyplexes were formed and incubated with several concentrations of heparin, the Sybr Gold nucleic acid dye was incubated with the HK polyplexes for 5 mins. Fluorescence was then measured by a microplate fluorimeter (λex=497 nm, λem=520 nm) (SynergyMx, BioTek). *, P<0.05; ***, P<0.001; H3K4b or H2K vs. H3K(+H)4b.
Heparin Displacement Assays. Heparin displacement assays of HK polyplexes were done with the dye intercalation assay and with gel electrophoresis. A fluorescent assay assessed polyplexes of HK polymer and mRNA (4:1 wt/wt ratio; polymer:mRNA) formed in RNAse/DNAase free water (Corning, Manassas, VA). HK polyplexes were prepared as described previously, followed by the addition of diluted Syber Gold. For detection, working dilutions of the polyplexes (1/5 of volume), water (3/5) and Sybr Gold dye (1/5, 0.2×) were incubated for 5 minutes, and fluorescence was measured by a fluorimeter (Ex=497 nm, Em=520 nm) (SynergyMx, BioTek, Winooski, VT). The control sample was prepared with the same amount of mRNA, water, and Sybr Gold dye. For the heparin displacement, instead of water, heparin salt (Sigma-Aldrich, St. Louis, MO) solutions at different concentrations (0.5, 1, 1.5, 2, 3 μg/μl) were used, and the HK polyplexes were incubated at 37° C. for 30 min before addition of Sybr Gold.
Displacement of mRNA from HK polyplexes with heparin was also done with gel electrophoresis. After HK polyplexes were formed, different concentrations of heparin (0.5, 1.0, 1.5, 2.0, 3.0 μg/μl; volume 20 μl) were incubated with these at 37° C. for 30 min. The polyplexes were then loaded on the agarose gel (1%; 10× BlueJuice Gel loading buffer), and electrophoresis was carried out and stained with SG as described above. […]

[1] = prior studies [27]; cited from earlier work
[2] = prior studies [34, 35, 45]; cited from earlier work
[3] = prior study [43]; cited from earlier work
human cells = settings: cited from earlier work
[4] = ratio mRNA:polymer 1:12 (wt:wt)

H2K4b: four-branched HK polymer on three-lysine core, each branch R = KHKHHKHHKHHKHHKHHKHK- (SEQ ID NO: 5) (also: one of four branches on a three-lysine core)
RLU/μg-Protein (luciferase activity) (MDA-MB-231 cells; ratio mRNA:polymer 1:4 (wt:wt)): 546.7 ± 70.1 RLU/μg-Protein
RLU/μg-Protein (luciferase activity) (MDA-MB-231 cells; ratio mRNA:polymer 1:8 (wt:wt)): 132.3 ± 58.5 RLU/μg-Protein
RLU/μg-Protein (luciferase activity) (MDA-MB-231 cells; [4]): 194.7 ± 18.4 RLU/μg-Protein
binding/release of mRNA and polyplex stability on exposure to heparin (in words) (mRNA): too stable
carrier of DNA plasmids (in words) [1]: good carrier of large molecular weight DNA plasmids
carrier of siRNA (in words) [2]: poor carrier of relatively low molecular weight siRNA

H3K(1+H)4b: four-branched HK polymer, each branch R = KHHHKHHHKHHHKHHHHK- (SEQ ID NO: 12) (also: one of four branches on a branched lysine core)
effectiveness as carrier of mRNA (in words) (MDA-MB-231 cells): poor carriers of mRNA
RLU/μg-Protein (luciferase activity) (MDA-MB-231 cells; ratio mRNA:polymer 1:4 (wt:wt)): 24.3 ± 4.5 RLU/μg-Protein
RLU/μg-Protein (luciferase activity) (MDA-MB-231 cells; ratio mRNA:polymer 1:8 (wt:wt)): 15.0 ± 3.6 RLU/μg-Protein
RLU/μg-Protein (luciferase activity) (MDA-MB-231 cells; [4]): 7.3 ± 2.5 RLU/μg-Protein

H3K(1,3+H)4b: four-branched HK polymer, each branch R = KHHHKHHHHKHHHKHHHHK- (SEQ ID NO: 14) (also: one of four branches on a branched lysine core)
fold less effective in transfecting mRNA compared to H3K(+H)4b (MDA-MB-231 cells; 4:1 ratio (HK:mRNA; wt:wt)): about 2.5 fold
RLU/μg-Protein (luciferase activity) (MDA-MB-231 cells; ratio mRNA:polymer 1:4 (wt:wt)): 518.3 ± 134.7 RLU/μg-Protein
RLU/μg-Protein (luciferase activity) (MDA-MB-231 cells; ratio mRNA:polymer 1:8 (wt:wt)): 427.7 ± 18.1 RLU/μg-Protein
RLU/μg-Protein (luciferase activity) (MDA-MB-231 cells; [4]): 378 ± 5.2 RLU/μg-Protein

H3K(3+H)4b: four-branched HK polymer, each branch R = KHHHKHHHHKHHHKHHHK- (SEQ ID NO: 13) (also: one of four branches on a branched lysine core)
effectiveness as carrier of mRNA (in words) (MDA-MB-231 cells): poor carriers of mRNA
RLU/μg-Protein (luciferase activity) (MDA-MB-231 cells; ratio mRNA:polymer 1:4 (wt:wt)): 61.7 ± 5.7 RLU/μg-Protein
RLU/μg-Protein (luciferase activity) (MDA-MB-231 cells; ratio mRNA:polymer 1:8 (wt:wt)): 68.7 ± 3.1 RLU/μg-Protein
RLU/μg-Protein (luciferase activity) (MDA-MB-231 cells; [4]): 59.0 ± 7.5 RLU/μg-Protein

H3k4b (KHHHKHHHKHHHKHHHK; also: one of four branches on a branched lysine core)
antimicrobial activity (in words) [3]: greater antimicrobial activity
cytotoxicity to human cells (in words) (human cells): no observed cytotoxicity to human cells

H4K4b: four-branched HK polymer, each branch R = KHHHHKHHHHKHHHHKHHHHK- (SEQ ID NO: 11) (also: one of four branches on a branched lysine core)
mRNA transfection relative to H3K(+H)4b (in words) (MDA-MB-231 cells): did not enhance mRNA transfection
effectiveness as carrier of mRNA (in words) (MDA-MB-231 cells): effective carriers of mRNA
RLU/μg-Protein (luciferase activity) (MDA-MB-231 cells; ratio mRNA:polymer 1:4 (wt:wt)): 896.4 ± 112.6 RLU/μg-Protein
RLU/μg-Protein (luciferase activity) (MDA-MB-231 cells; ratio mRNA:polymer 1:8 (wt:wt)): 821.8 ± 115.6 RLU/μg-Protein
RLU/μg-Protein (luciferase activity) (MDA-MB-231 cells; [4]): 522.4 ± 69.2 RLU/μg-Protein

H-H3K(+H)4b: four-branched HK polymer, each branch R = HKHHHKHHHKHHHHKHHHK- (SEQ ID NO: 9) (also: one of four branches on a branched lysine core)
mRNA transfection relative to H3K(+H)4b (in words) (MDA-MB-231 cells): did not improve mRNA transfection more than H3K(+H)4b
effectiveness as carrier of mRNA (in words) (MDA-MB-231 cells): effective carriers of mRNA; also recorded: markedly more effective as a carrier of mRNA
RLU/μg-Protein (luciferase activity) (MDA-MB-231 cells; ratio mRNA:polymer 1:4 (wt:wt)): 1107.5 ± 140.4 RLU/μg-Protein
RLU/μg-Protein (luciferase activity) (MDA-MB-231 cells; ratio mRNA:polymer 1:8 (wt:wt)): 874.6 ± 65.2 RLU/μg-Protein
RLU/μg-Protein (luciferase activity) (MDA-MB-231 cells; [4]): 676.4 ± 25.7 RLU/μg-Protein

— patent US20230313181A1, “HISTIDINE-LYSINE POLYMERS AND METHODS FOR DELIVERING MRNA USING THE SAME” (UNIVERSITY OF MARYLAND, BALTIMORE, priority 2019, published 2023)
